Data from the supplement of paper PMC10307832.

What was measured:
Experiment in all cases: relative viability (nuclei count vs DMSO), 5 days (fraction); higher = more cells survive
[1] = tested on: COR-L23
Summary of the method: (§1)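 Dosing by pin tool came one day after lung cancer cell lines were seeded in 1536-well plates, using either one drug or a fixed anchor-drug dose plus five library-drug doses (not always all listed) in √10 steps. After 5 days, nuclei were counted on 4× images. Relative viability is treated-well nuclei count divided by vehicle-well nuclei count, and values are medians of duplicate plates.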

[2] = tested on: NCI-H1944
Summary of the method: as §1

[3] = tested on: EMC-BAC-2
Summary of the method: as §1

[4] = tested on: HCC-366
Summary of the method: as §1

[5] = tested on: NCI-H2228
Summary of the method: as §1

[6] = tested on: A-427
Summary of the method: as §1

[7] = tested on: HCC-15
Summary of the method: as §1

[8] = tested on: NCI-H1734
Summary of the method: as §1

[9] = tested on: NCI-H2023
Summary of the method: as §1

[10] = tested on: UMC-11
Summary of the method: as §1

[11] = tested on: HCC-78
Summary of the method: as §1

[12] = tested on: NCI-H1993
Summary of the method: as §1

[13] = tested on: NCI-H1793
Summary of the method: as §1

[14] = tested on: NCI-H1650
Summary of the method: as §1

[15] = tested on: NCI-H838
Summary of the method: as §1

[16] = tested on: NCI-H2405
Summary of the method: as §1

[17] = tested on: NCI-H23
Summary of the method: as §1

[18] = tested on: HARA
Summary of the method: as §1

[19] = tested on: LK-2
Summary of the method: as §1

[20] = tested on: ABC-1
Summary of the method: as §1

[21] = tested on: LC-2-ad
Summary of the method: as §1

[22] = tested on: SK-LU-1
Summary of the method: as §1

[23] = tested on: NCI-H2009
Summary of the method: as §1

Structure (SMILES): COc1cc(N2CCC(C(N)=O)CC2)ccc1Nc1nc(N)c(Cl)c(Nc2ccccc2S(=O)(=O)C(C)C)n1 [HG-5-88-01] + CS(=O)(=O)CCNCc1ccc(-c2ccc3ncnc(Nc4ccc(OCc5cccc(F)c5)c(Cl)c4)c3c2)o1 [Lapatinib] (partner 2 µM)
- relative viability ([1]; first compound 0.04 µM): 0.998
- relative viability ([1]; first compound 0.1265 µM): 1.07
- relative viability ([1]; first compound 0.4 µM): 0.957
- relative viability ([1]; first compound 1.265 µM): 0.921
- relative viability ([1]; first compound 4 µM): 0.629
- relative viability ([2]; first compound 0.04 µM): 0.656
- relative viability ([2]; first compound 0.1265 µM): 0.84
- relative viability ([2]; first compound 0.4 µM): 0.78
- relative viability ([2]; first compound 1.265 µM): 0.861
- relative viability ([2]; first compound 4 µM): 0.648
- relative viability ([3]; first compound 0.04 µM): 0.928
- relative viability ([3]; first compound 0.1265 µM): 0.93
- relative viability ([3]; first compound 0.4 µM): 0.802
- relative viability ([3]; first compound 1.265 µM): 0.906
- relative viability ([3]; first compound 4 µM): 0.684
- relative viability ([4]; first compound 0.04 µM): 1.04
- relative viability ([4]; first compound 0.1265 µM): 1.04
- relative viability ([4]; first compound 0.4 µM): 0.863
- relative viability ([4]; first compound 1.265 µM): 1.08
- relative viability ([4]; first compound 4 µM): 1.29
- relative viability ([5]; first compound 0.04 µM): 0.322
- relative viability ([5]; first compound 0.1265 µM): 0.264
- relative viability ([5]; first compound 0.4 µM): 0.394
- relative viability ([5]; first compound 1.265 µM): 0.409
- relative viability ([5]; first compound 4 µM): 0.356
- relative viability ([6]; first compound 0.04 µM): 0.976
- relative viability ([6]; first compound 0.1265 µM): 0.984
- relative viability ([6]; first compound 0.4 µM): 0.978
- relative viability ([6]; first compound 1.265 µM): 1.04
- relative viability ([6]; first compound 4 µM): 0.589
- relative viability ([7]; first compound 0.04 µM): 0.878
- relative viability ([7]; first compound 0.1265 µM): 0.83
- relative viability ([7]; first compound 0.4 µM): 0.792
- relative viability ([7]; first compound 1.265 µM): 0.894
- relative viability ([7]; first compound 4 µM): 0.449
- relative viability ([8]; first compound 0.04 µM): 1
- relative viability ([8]; first compound 0.1265 µM): 1.08
- relative viability ([8]; first compound 0.4 µM): 1.02
- relative viability ([8]; first compound 1.265 µM): 0.982
- relative viability ([8]; first compound 4 µM): 0.969
- relative viability ([9]; first compound 0.04 µM): 0.926
- relative viability ([9]; first compound 0.1265 µM): 1.32
- relative viability ([9]; first compound 0.4 µM): 0.573
- relative viability ([9]; first compound 1.265 µM): 0.708
- relative viability ([9]; first compound 4 µM): 0.335
- relative viability ([10]; first compound 0.04 µM): 0.84
- relative viability ([10]; first compound 0.1265 µM): 1.13
- relative viability ([10]; first compound 0.4 µM): 0.837
- relative viability ([10]; first compound 1.265 µM): 0.927
- relative viability ([10]; first compound 4 µM): 0.632
- relative viability ([11]; first compound 0.04 µM): 0.737
- relative viability ([11]; first compound 0.1265 µM): 0.465
- relative viability ([11]; first compound 0.4 µM): 0.223
- relative viability ([11]; first compound 1.265 µM): 0.264
- relative viability ([11]; first compound 4 µM): 0.226
- relative viability ([12]; first compound 0.04 µM): 0.713
- relative viability ([12]; first compound 0.1265 µM): 0.853
- relative viability ([12]; first compound 0.4 µM): 0.843
- relative viability ([12]; first compound 1.265 µM): 0.79
- relative viability ([12]; first compound 4 µM): 0.788
- relative viability ([13]; first compound 0.1265 µM): 0.655
- relative viability ([13]; first compound 0.4 µM): 0.607
- relative viability ([13]; first compound 1.265 µM): 0.762
- relative viability ([13]; first compound 4 µM): 0.77
- relative viability ([14]; first compound 0.04 µM): 0.785
- relative viability ([14]; first compound 0.1265 µM): 0.869
- relative viability ([14]; first compound 0.4 µM): 0.928
- relative viability ([14]; first compound 1.265 µM): 0.799
- relative viability ([14]; first compound 4 µM): 0.29
- relative viability ([15]; first compound 0.04 µM): 0.906
- relative viability ([15]; first compound 0.1265 µM): 0.952
- relative viability ([15]; first compound 0.4 µM): 0.797
- relative viability ([15]; first compound 1.265 µM): 0.708
- relative viability ([15]; first compound 4 µM): 0.498
- relative viability ([16]; first compound 0.04 µM): 1.25
- relative viability ([16]; first compound 0.1265 µM): 1.14
- relative viability ([16]; first compound 0.4 µM): 0.992
- relative viability ([16]; first compound 1.265 µM): 0.894
- relative viability ([16]; first compound 4 µM): 0.865
- relative viability ([17]; first compound 0.04 µM): 1.05
- relative viability ([17]; first compound 0.1265 µM): 1.23
- relative viability ([17]; first compound 0.4 µM): 0.874
- relative viability ([17]; first compound 1.265 µM): 1.05
- relative viability ([17]; first compound 4 µM): 0.393
- relative viability ([18]; first compound 0.04 µM): 0.754
- relative viability ([18]; first compound 0.1265 µM): 0.528
- relative viability ([18]; first compound 0.4 µM): 0.671
- relative viability ([18]; first compound 1.265 µM): 0.71
- relative viability ([18]; first compound 4 µM): 0.31
- relative viability ([19]; first compound 0.04 µM): 0.94
- relative viability ([19]; first compound 0.1265 µM): 0.841
- relative viability ([19]; first compound 0.4 µM): 0.792
- relative viability ([19]; first compound 1.265 µM): 0.42
- relative viability ([19]; first compound 4 µM): 0.885
- relative viability ([20]; first compound 0.04 µM): 1.2
- relative viability ([20]; first compound 0.1265 µM): 1.12
- relative viability ([20]; first compound 0.4 µM): 0.996
- relative viability ([20]; first compound 1.265 µM): 0.624
- relative viability ([20]; first compound 4 µM): 1.32
- relative viability ([21]; first compound 0.04 µM): 0.993
- relative viability ([21]; first compound 0.1265 µM): 1.02
- relative viability ([21]; first compound 0.4 µM): 0.876
- relative viability ([21]; first compound 1.265 µM): 0.908
- relative viability ([21]; first compound 4 µM): 0.629
- relative viability ([22]; first compound 0.04 µM): 0.947
- relative viability ([22]; first compound 0.1265 µM): 0.855
- relative viability ([22]; first compound 0.4 µM): 0.787
- relative viability ([22]; first compound 1.265 µM): 0.611
- relative viability ([22]; first compound 4 µM): 0.737
- relative viability ([23]; first compound 0.04 µM): 0.943
- relative viability ([23]; first compound 0.1265 µM): 1.01
- relative viability ([23]; first compound 0.4 µM): 0.843
- relative viability ([23]; first compound 1.265 µM): 0.939
- relative viability ([23]; first compound 4 µM): 0.433
